From patent publication US8461152B2, “Arylcyclohexylethers of dihydrotetraazabenzoazulenes” (Hoffmann-La Roche Inc., priority 2008, dated 2013)

Molecular target: T1, human V1a receptor (Homo sapiens, UniProt P37288)
T1 construct: expressed in transfected cells; host or cells: HEK293 cells, transiently transfected; membrane preparation
Test: human V1a receptor binding studies (SPA, 3H-Vasopressin, membranes of transfected HEK293 cells)
Conditions: displacement of 3H-Vasopressin, HEK293 cell membranes, 1 h at room temperature; Ki by Cheng-Prussoff equation; read-out: pKi (hV1a) (converted)

T1 sequence (P37288 whole entry): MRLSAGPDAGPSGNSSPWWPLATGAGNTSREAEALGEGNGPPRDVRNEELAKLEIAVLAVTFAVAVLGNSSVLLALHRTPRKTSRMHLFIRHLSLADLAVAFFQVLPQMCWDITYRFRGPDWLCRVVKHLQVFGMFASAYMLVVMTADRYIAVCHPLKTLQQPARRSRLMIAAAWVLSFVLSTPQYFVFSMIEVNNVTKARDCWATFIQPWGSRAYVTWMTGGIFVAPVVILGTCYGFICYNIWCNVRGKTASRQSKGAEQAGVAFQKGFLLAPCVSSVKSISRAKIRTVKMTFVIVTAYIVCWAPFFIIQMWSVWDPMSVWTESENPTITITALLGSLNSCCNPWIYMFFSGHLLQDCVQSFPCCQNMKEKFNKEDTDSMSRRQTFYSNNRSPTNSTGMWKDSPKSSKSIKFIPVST

SMILES	Ki [nM]
CC(C)(C)OC(=O)N1Cc2cc(Cl)ccc2-n2c(nnc2[C@H]2CC[C@@H](Oc3ncccn3)CC2)C1 [Example 80, cis-8-Chloro-1-[4-(pyrimidin-2-yloxy)-cyclohexyl]-4H,6H-2,3,5,10b-tetraaza-benzo[e]azulene-5-carboxylic acid tert-butyl ester]	12.6
CN1Cc2cc(Cl)ccc2-n2c(nnc2[C@H]2CC[C@H](Oc3ncccn3)CC2)C1 [Example 82, trans-8-Chloro-5-methyl-1-[4-(pyrimidin-2-yloxy)-cyclohexyl]-5,6-dihydro-4H-2,3,5,10b-tetraaza-benzo[e]azulene]	5.5
CC(C)(C)OC(=O)N1Cc2cc(Cl)ccc2-n2c(nnc2[C@H]2CC[C@H](Oc3cnccn3)CC2)C1 [Example 83, trans-8-Chloro-1-[4-(pyrazin-2-yloxy)-cyclohexyl]-4H,6H-2,3,5,10b-tetraaza-benzo[e]azulene-5-carboxylic acid tert-butyl ester]	4.07
CN1Cc2cc(Cl)ccc2-n2c(nnc2[C@H]2CC[C@H](Oc3cnccn3)CC2)C1 [Example 85, trans-8-Chloro-5-methyl-1-[4-(pyrazin-2-yloxy)-cyclohexyl]-5,6-dihydro-4H-2,3,5,10b-tetraaza-benzo[e]azulene]	7.59
CC(C)(C)OC(=O)N1Cc2cc(Cl)ccc2-n2c(nnc2[C@H]2CC[C@H](Oc3ccncn3)CC2)C1 [Example 86, trans-8-Chloro-1-[4-(pyrimidin-4-yloxy)-cyclohexyl]-4H,6H-2,3,5,10b-tetraaza-benzo[e]azulene-5-carboxylic acid tert-butyl ester]	3.47
CN1Cc2cc(Cl)ccc2-n2c(nnc2[C@H]2CC[C@H](Oc3ccncn3)CC2)C1 [Example 89, trans-8-Chloro-5-methyl-1-[4-(pyrimidin-4-yloxy)-cyclohexyl]-5,6-dihydro-4H-2,3,5,10b-tetraaza-benzo[e]azulene]	12.3
CC(C)(C)OC(=O)N1Cc2cc(Cl)ccc2-n2c(nnc2[C@H]2CC[C@H](Oc3cccnn3)CC2)C1 [Example 92, trans-8-Chloro-1-[4-(pyridazin-3-yloxy)-cyclohexyl]-4H,6H-2,3,5,10b-tetraaza-benzo[e]azulene-5-carboxylic acid tert-butyl ester]	2.4
CC(C)(C)OC(=O)N1Cc2cc(Cl)ccc2-n2c(nnc2[C@H]2CC[C@@H](Oc3cccnn3)CC2)C1 [Example 93, cis-8-Chloro-1-[4-(pyridazin-3-yloxy)-cyclohexyl]-4H,6H-2,3,5,10b-tetraaza-benzo[e]azulene-5-carboxylic acid tert-butyl ester]	7.94
CN1Cc2cc(Cl)ccc2-n2c(nnc2[C@H]2CC[C@H](Oc3cccnn3)CC2)C1 [Example 95, trans-8-Chloro-5-methyl-1-[4-(pyridazin-3-yloxy)-cyclohexyl]-5,6-dihydro-4H-2,3,5,10b-tetraaza-benzo[e]azulene]	9.12
Fc1cccnc1O[C@H]1CC[C@H](c2nnc3n2-c2ccc(Cl)cc2CNC3)CC1 [Example 98, trans-8-Chloro-1-[4-(3-fluoro-pyridin-2-yloxy)-cyclohexyl]-5,6-dihydro-4H-2,3,5,10b-tetraaza-benzo[e]azulene]	3.02
Fc1ccc(O[C@H]2CC[C@H](c3nnc4n3-c3ccc(Cl)cc3CNC4)CC2)nc1 [Example 101, trans-8-Chloro-1-[4-(5-fluoro-pyridin-2-yloxy)-cyclohexyl]-5,6-dihydro-4H-2,3,5,10b-tetraaza-benzo[e]azulene]	9.12
Cc1cccc(O[C@H]2CC[C@H](c3nnc4n3-c3ccc(Cl)cc3CNC4)CC2)n1 [Example 105, trans-8-Chloro-1-[4-(6-methyl-pyridin-2-yloxy)-cyclohexyl]-5,6-dihydro-4H-2,3,5,10b-tetraaza-benzo[e]azulene]	5.75
Clc1ccc2c(c1)CNCc1nnc([C@H]3CC[C@@H](Oc4ccccn4)CC3)n1-2 [Example 110, cis-8-Chloro-1-[4-(pyridin-2-yloxy)-cyclohexyl]-5,6-dihydro-4H-2,3,5,10b-tetraaza-benzo[e]azulene]	51.3
CN1Cc2cc(Cl)ccc2-n2c(nnc2[C@H]2CC[C@@H](Oc3ccccn3)CC2)C1 [Example 111, cis-8-Chloro-5-methyl-1-[4-(pyridin-2-yloxy)-cyclohexyl]-5,6-dihydro-4H-2,3,5,10b-tetraaza-benzo[e]azulene]	3.31
